Data on one compound can be found in patent US12383567B2, “Use of cannabinoids in the treatment of epilepsy” (Jazz Pharmaceuticals Research UK Limited, priority 2017, dated 2025).

The structures appear in SMILES notation.

This data set is described as follows: Drug-drug interaction between cannabidiol (CBD) and tacrolimus in an epilepsy patient (clinical trial, open label phase). The data set is classed as in vivo, human. How it is done:
The patient was a person with refractory epilepsy receiving the immunosuppressant drug tacrolimus for interstitial nephritis.
The patient had been stable on tacrolimus at a dose of 5 mg twice per day for a year prior to entry into a clinical trial on the use of CBD to treat childhood-onset epilepsy. At the time of entry into the study their blood level of tacrolimus was between 3.9 and 8.4 ng/mL.
The patient was initially randomized to the sesame oil placebo arm of the trial, during this phase there was no change in the levels of tacrolimus or serum creatine.
The dose of tacrolimus was reduced repeatedly while receiving CBD as described in FIG. 1. A dose of 0.5 mg twice per day (a 10-fold reduction) was finally reached.

[1] abbreviates: during the time the subject was taking CBD with tacrolimus.

As for `C=C(C)[C@@H]1CCC(C)=C[C@H]1c1c(O)cc(CCCCC)cc1O` [CBD, Cannabidiol], under setting [1], the “blood urea nitrogen (BUN) change” value is “significant increase” and the “serum creatine levels change” value was “significant increase”. The tacrolimus toxicity entry (open label phase, receiving CBD concurrently with tacrolimus) is “signs of tacrolimus toxicity”.
